Results published in US6274330A, “L-AP4 sensitive glutamate receptors” (ZymoGenetics, Inc., priority 1993, dated 2001).
“Also recorded” adds a separate entry of the source.

How the values were obtained:
mGluR7 [1] = target: T1, mGluR7 (Rattus norvegicus, UniProt P35400); test: Inhibition of forskolin-stimulated cAMP production in BHK cells transfected with mGluR7; type: cell-based; conditions: for antagonism of the inhibition of cAMP produced by L-AP4: antagonist 1 mM; for inhibition of forskolin-stimulated cAMP production: forskolin 10 μM, 10 minutes, IBMX 1 mM; for decrease in cAMP: agonist 100 μM; for agonist potency at mGluR7 compared with that previously observed for mGluR4 or mGluR6: cAMP inhibition, no full concentration-response analysis
T1 construct: RNA-injected Xenopus oocytes
T1 sequence (P35400 35-915): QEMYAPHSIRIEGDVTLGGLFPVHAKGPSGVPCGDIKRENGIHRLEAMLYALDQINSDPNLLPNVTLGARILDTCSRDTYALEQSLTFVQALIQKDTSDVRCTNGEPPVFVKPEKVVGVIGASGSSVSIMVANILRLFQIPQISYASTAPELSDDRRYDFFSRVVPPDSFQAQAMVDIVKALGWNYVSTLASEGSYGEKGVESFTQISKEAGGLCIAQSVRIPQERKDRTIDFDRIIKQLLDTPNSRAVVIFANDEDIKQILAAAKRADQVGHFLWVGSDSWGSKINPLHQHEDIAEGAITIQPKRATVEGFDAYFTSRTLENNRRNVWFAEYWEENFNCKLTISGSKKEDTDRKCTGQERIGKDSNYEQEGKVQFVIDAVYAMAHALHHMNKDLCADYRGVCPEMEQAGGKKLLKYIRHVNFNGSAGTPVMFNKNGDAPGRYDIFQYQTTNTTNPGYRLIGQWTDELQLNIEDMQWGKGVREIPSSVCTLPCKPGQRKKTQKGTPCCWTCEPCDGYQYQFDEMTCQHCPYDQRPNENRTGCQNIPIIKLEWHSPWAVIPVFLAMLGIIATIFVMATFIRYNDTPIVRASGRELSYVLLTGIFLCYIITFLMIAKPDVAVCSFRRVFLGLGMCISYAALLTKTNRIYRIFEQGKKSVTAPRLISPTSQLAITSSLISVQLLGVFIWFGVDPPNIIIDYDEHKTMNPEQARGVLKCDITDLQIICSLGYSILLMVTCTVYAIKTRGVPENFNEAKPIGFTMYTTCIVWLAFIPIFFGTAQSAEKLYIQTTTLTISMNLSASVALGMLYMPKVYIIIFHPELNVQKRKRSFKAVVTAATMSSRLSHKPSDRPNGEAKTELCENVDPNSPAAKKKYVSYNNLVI
Experimental: FIG. 2 depicts the inhibition of forskolin-stimulated cAMP production by mGluR7 in baby hamster kidney cells. BHK cells transfected with mGluR7 were preincubated for 20 minutes in IBMX (1 mM), then incubated for 10 minutes with forskolin (10 μM) in the presence or absence of agonists or antagonists.
BHK cells were transfected with mGluR7 subcloned into pZEM229R. Plasmid pZEM229R is a pUC18-based expression vector containing an EcoRI cloning site between a mouse metallothionein-I promoter and an SV40 transcription terminator. The vector also contains an expression unit of the SV40 early promoter, mouse dihydrofolate reductase gene, and SV40 terminator. The two expression units are in opposite orientations with their respective promoters adjacent to each other. E. coli HB101 transformed with pZEM229R was deposited with American Type Culture Collection, 12301 Parklawn Drive, Rockville, MD on Sep. 28, 1993.
(§1) The cells were grown in 10% fetal calf serum and Dulbecco's minimal essential media (DMEM), and transfected clones were selected by methotrexate resistance. Resistant clones were assayed for the presence of mGluR7 RNA and protein. Confluent cells were assayed for cAMP production (Amersham) in the presence of IBMX (1 mM) isobutylmethylxanthine; cAMP levels were measured after 10 minute treatment with forskolin (10 μM) in the presence or absence of mGluR agonists or antagonists. Assays were performed in triplicate three times and the average value from these experiments expressed as the mean cAMP levels plus and minus the standard deviation. The basal cAMP production was subtracted from the stimulated levels and the inhibition was plotted as a percent of the forskolin-stimulated control.

mGluR4 = test: Forskolin-stimulated cAMP assay in a BHK clone expressing mGluR4; type: cell-based; conditions: L-AP4 1 mM
wild-type BHK cells = test: cAMP levels in wild-type BHK cells; type: cell-based, hamster
Experimental: as §1

mGluR7 [2] = target: T1, mGluR7; test: Calcium-activated chloride current in Xenopus oocytes injected with mGluR7 mRNA (two-electrode voltage clamp); type: cell-based
Experimental: (§2) For oocyte expression studies, xenopus laevis (Xenopus I, Ann Arbor) were anesthetized with tricaine and oocytes harvested using sterile technique. RNA transcripts from mGluR1 and mGluR7 were injected into Stage V-VI oocytes (1-100 ng RNA/oocyte) and the oocytes were assayed for production of a calcium-activated chloride current using a two-electrode voltage clamp. Harvesting of oocytes, solutions and recording methods were as described by Lester and colleagues (Dascal et al., Brain Res. 387: 201-209 [1986], which is incorporated herein by reference).

mGluR1 = test: Calcium-activated chloride current in Xenopus oocytes injected with mGluR1 mRNA (two-electrode voltage clamp); type: cell-based; conditions: sister oocytes injected with mGluR1 mRNA
Experimental: as §2

[3] = agonist 1 mM, BHK cells expressing mGluR7

| SMILES | antagonism of the inhibition of cAMP produced by L-AP4 (mGluR7 [1]; BHK cells expressing mGluR7) | inhibition of forskolin-stimulated cAMP production (mGluR7 [1]; [3]) | decrease in cAMP (mGluR7 [1]; BHK cells expressing mGluR7) | agonist potency at mGluR7 compared with that previously observed for mGluR4 or mGluR6 (mGluR7 [1]) | further results |
| --- | --- | --- | --- | --- | --- |
| CC(N)(C(=O)O)c1ccc(C(=O)O)cc1 (racemic) [MCPG, RS-α-methyl-4-carboxyphenylglycine] | did not antagonize |  |  |  |  |
| N[C@@]1(C(=O)O)CC[C@@H](C(=O)O)C1 [ACPD, (1S,3R)-1-aminocyclopentane-1,3-dicarboxylic acid] |  | less efficient; also recorded: much less effective |  |  |  |
| N[C@@H](CP(=O)(O)O)C(=O)O [L-AP3, 2-amino-3-phosphonopropionic acid] | did not antagonize |  |  |  | antagonism of mGluR7-mediated cAMP inhibition (mGluR7 [1]; antagonist 3 mM, BHK cells expressing mGluR7): did not antagonize |
| N[C@@H](CCP(=O)(O)O)C(=O)O [L-AP4, L-2-amino-4-phosphonobutryic acid] |  | largest inhibition; also recorded: inhibited | small decreases in cAMP which were not statistically significant | much less potent agonists | inhibition (cAMP) in BHK clone expressing mGluR4 (mGluR4): 45%; effect on basal cAMP levels (wild-type BHK cells): no significant effect; effect on forskolin-stimulated cAMP levels (wild-type BHK cells): no significant effect |
| N[C@@H](CCC(=O)O)C(=O)O [glutamate] |  | less efficient; also recorded: inhibited | small decreases in cAMP which were not statistically significant | much less potent agonists | glutamate response (calcium-activated chloride current) (mGluR7 [2]): no glutamate responses; glutamate response (calcium-activated chloride current) (mGluR1): large calcium-activated chloride currents |
| N[C@@H](Cn1oc(=O)[nH]c1=O)C(=O)O [quisqualate] |  |  |  |  | inhibition of forskolin-stimulated cAMP production (mGluR7 [1]; agonist 0.5 mM, BHK cells expressing mGluR7): less efficient; also recorded: much less effective |
